Format in all cases: functional, cell-based
The nature of test [1]: Compound was evaluated for its antiproliferative activity on human T-lymphocyte Molt4/C8 cells. The note with it: MOLT-4.
The test system of a further test is L1210. In words: Tested for its antiproliferative activity on murine leukemia L1210 cells. The note with it: Mus musculus.
Test [2] can be described thus: Compound was evaluated for its antiproliferative activity on human T-lymphocyte CEM cells. The note with it: CCRF-CEM.

Consider `C=CCO[C@H]1[C@H](O)[C@@H](CO)O[C@H]1n1cnc2c(N)ncnc21`, for which the concentration for half-maximal inhibition (IC50) was 88 µM in test [1], 250 µM in the test with L1210 and 72 µM in test [2].
`C=CCO[C@H]1[C@H](O)[C@@H](CO)O[C@H]1n1ccc(=O)[nH]c1=O`: the IC50 (in test [1]; in the test on L1210; in test [2]) was greater than 500 µM each time.
Consider `C=CCO[C@H]1[C@H](O)[C@@H](CO)O[C@H]1n1ccc(N)nc1=O`, for which the values for the IC50 (in test [1]; in the test with L1210; in test [2]) were 588 µM, 127 µM and 127 µM, respectively.
Regarding `Nc1ccn([C@@H]2O[C@H](CO)[C@@H](O)[C@@H]2O)c(=O)n1` [CYTARABINE], the figures for the half-maximal inhibitory concentration (IC50) (in test [1]; with L1210; in test [2]) were 0.03 µM, 0.031 µM and 0.0037 µM, respectively.
As for `O=c1ccn([C@@H]2O[C@H](CO)[C@@H](O)[C@H]2O)c(=O)[nH]1` [URIDINE], the IC50 (in test [1]; in the test with L1210; in test [2]) was greater than 200 µM in each case.
Consider `Nc1ncnc2c1ncn2[C@@H]1O[C@H](CO)[C@@H](O)[C@@H]1O` [VIDARABINE], for which the half-inhibitory concentration (IC50) in test [1] came to 11.9 µM; in the test with L1210 it was 14.2 µM; in test [2] it was 24.8 µM.
